# Experimental data reported in PubChem BioAssay AID1996.
# Conditions: buffer; pH 7.4; 200.0 µM
row,Compound,solubility kinetic [µg/mL]
1,Cc1c(C(=O)N2CCC2)oc2ccc(Br)cc12,19.5
2,O=C(Nc1nnc(C2=COCCO2)o1)c1cccc(F)c1,> 43.7
3,CC(C)c1ccc(C(C)NC(=S)NC2CCCCC2)cc1 (centres undefined),1.9
4,CC(C(=O)O)c1ccc2c(c1)[nH]c1ccc(Cl)cc12 (centres undefined),> 41.1
5,CC(=O)c1c(C)[nH]c(C(=O)COC(=O)c2nccnc2N)c1C,11.9
6,S=C(NCc1ccco1)NCc1ccccc1Cl,> 42.1
7,CCS(=O)(=O)c1ccc(O)c(NC(=O)c2ccc(S(=O)(=O)N3CCCCCC3)cc2)c1,11.6
8,COc1cc(/C=N/O)ccc1Oc1cnccn1,> 36.8
9,Cc1ccc(S(=O)(=O)N2CCOCC2)cc1C(=O)NC(C)CCc1ccccc1 (centres undefined),25.1
10,O=C(NCCc1ccncc1)Nc1ccc(F)cc1,> 38.9
11,CC(C)(C)C1CCC(N2CCN(c3ccccc3)CC2)CC1 (centres undefined),0.5
12,O=C(Nc1ccc2cccnc2c1)c1ccc(Br)cc1,0.4
13,COc1ccccc1CNC(=O)COC(=O)c1cc(=O)c2ccccc2o1,> 55.1
14,CCOC(=O)c1c(NC(=O)COC(=O)c2cccnc2OCC)sc(C(=O)N(CC)CC)c1C,4.6
15,CCOc1ccc(NC(=O)CCc2ccc(C)o2)cc1,10.5
16,O=C(OCC(=O)N1CCCCC1)c1ccc2ccccc2n1,> 44.7
17,Cc1ccc(C(=O)/C=C/c2ccccc2[N+](=O)[O-])cc1,6.8
18,O=C1CCC(C(=O)OCC(=O)c2ccccc2)N1 (centres undefined),> 37.1
19,COC(=O)c1ccccc1NC(=O)CSc1nc2ncccc2[nH]1,8.7
20,OCCCNc1c2ccccc2nc2ccccc12,> 37.8
21,CC(C)CCNC(=O)C1CCC(=O)N1CCc1ccccc1 (centres undefined),42.8
22,Cc1cc(C)cc(NC(=O)COC(=O)c2ccc3c(c2)OCCO3)c1,2.3
23,COc1ccccc1CNC(=O)COc1cccnc1[N+](=O)[O-],> 47.6
24,Cl.O=C(COc1ccc(F)cc1)NCCCn1ccnc1,39.1

row,Compound,solubility kinetic [µg/mL]
1,CCOc1ccc(S(=O)(=O)N2CCN(c3ccccn3)CC2)cc1,1.6
2,O=C(Nc1cccc2cccnc12)c1cc(F)c(F)cc1Cl,< 0.3
3,CC1CCCC(C)N1C(=O)COC(=O)c1cncc(Br)c1 (centres undefined),> 53.3
4,Cc1ccc(NC(=O)COc2cccc3c2OC(C)(C)C3)c(O)c1,6.8
5,C=CCNC(=O)c1ccc(N(Cc2ccccc2)S(C)(=O)=O)cc1,> 51.7
6,COc1ccc(NS(=O)(=O)c2cc(C(=O)N3CCCCCC3)ccc2C)cc1,> 60.4
7,CC(=O)Nc1cccc(OCCCNC(=O)c2ccc(C(C)(C)C)cc2)c1,23.2
8,c1ccc(-c2nc3c4ccccc4ccn3c2CN2CCCCC2)cc1,8.1
9,Cc1cc(NC(=O)CS(=O)(=O)c2c[nH]c3ccccc23)no1,> 47.9
10,O=c1c(Cc2ccccc2)c(O)ccn1Cc1ccc2c(c1)OCO2,2.7
11,CCC(C)c1ccccc1OCCCN(C)Cc1ccccc1 (centres undefined),4.1
12,CCCc1nc(SCC(=O)NC2CC2)c2c(C)c(C)sc2n1,0.8
13,O=C(NC1CC2CCCC(C1)N2C(=O)Nc1ccccc1F)C1CC1 (centres undefined),16.2
14,CC1=NOC(=O)/C1=C\c1ccccc1,24.4
15,CCc1cccc2c1NC(=O)C2(O)N1CCCC(C)C1 (centres undefined),38.5
16,COc1ccc(OCCNC(=O)c2ccc(C)cc2)cc1,36.8
17,Cc1cc(C)cc(NC(=O)CCOc2ccccc2)c1,4.1
18,Cc1sc2ncnc(SCC(=O)NC(C)(C)C)c2c1C,19.3
19,Cl.c1cc(CNC2C3CC4CC(C3)CC2C4)ccn1 (centres undefined),33.7
20,C=CCNc1nc(Cl)nc(Nc2ccccc2)n1,2.2
21,COc1ncnc2c1ncn2CC1COC(C)(C)O1 (centres undefined),34.9
22,O=C1NCC(COc2ccc(Cl)cc2)O1 (centres undefined),> 34.1
23,CCC(=O)Nc1cc(OC)cc(OC)c1,> 31.4
24,N#C/C(=C/Nc1ccccc1C(=O)O)C(N)=O,> 34.7

row,Compound,solubility kinetic [µg/mL]
1,CC(c1ccccc1)N1C(=O)c2cccnc2C1=O (centres undefined),32.6
2,Cc1onc(-c2c(Cl)cccc2Cl)c1NC(=O)NC1CCSC1 (centres undefined),> 55.8
3,Cc1c(NC(=O)c2ccc3nsnc3c2)cccc1[N+](=O)[O-],2.3
4,COc1ccccc1NS(=O)(=O)c1cc(NC(=O)c2ccccc2[N+](=O)[O-])ccc1N1CCOCC1,4.4
5,CC(NC(=O)CCNC(=O)c1ccc(C(C)(C)C)cc1)c1ccccc1 (centres undefined),17.1
6,Cc1ccc(N2C(=O)CC(N3CCSCC3)C2=O)c(C)c1 (centres undefined),> 45.7
7,C/C(=N\OCc1cccc(C(=O)O)c1)c1ccc(Cl)cc1,> 45.6
8,CC(=O)c1cccc(NC(=O)C(CC(C)C)NC(=O)C2CCCCC2)c1 (centres undefined),20.2
9,CC(=O)c1ccccc1NC(=O)COC(=O)/C=C/c1ccc(C)o1,< 0.7
10,COc1cccc(CNC(=O)CCc2ccc(OC)c(OC)c2)c1,> 49.4
11,CN1CCN(C(=O)/C=C/c2c(F)cccc2Cl)CC1,> 42.4
12,O=C(O)c1ccc(S(=O)(=O)N2CCSCC2)cc1,42.9
13,CC(C)OC(=O)CSc1nc(C(C)C)nc2ccccc12,2.1
14,Cc1cc(C(=O)Nc2ccc3ccccc3c2)c(C)o1,1.8
15,CC[C@H](C)[C@H](NC(N)=O)C(=O)Nc1ccc2c(c1)OCO2,38.6
16,COc1ccc(N2CCN(C(=O)c3cccc(NS(=O)(=O)c4cccc(F)c4)c3)CC2)cc1,52.8
17,Cc1ccc(C)c(Oc2cc(F)nc(N)n2)c1,> 35
18,Cc1cccc(C)c1OCCN1CCOCC1.O=C(O)C(=O)O,42.1
19,CC(=O)N/C(=C\c1ccc(C)o1)C(=O)NCc1ccccc1,> 44.8
20,Cn1c(CNC(=O)OC(C)(C)C)n[nH]c1=S,> 36.6
21,Cc1ccc(S(=O)(=O)/N=C(\N)c2ccc(F)cc2)cc1,38.1
22,CN(C(=S)NC(=O)c1ccccc1)C1CCCCC1,> 41.5
23,CCC(C)NC(=O)COC(=O)c1ccc(Cl)cc1O (centres undefined),4.7
24,COc1cc(NC(=O)COC(=O)CC2CC3CCC2C3)cc(OC)c1 (centres undefined),14.6

row,Compound,solubility kinetic [µg/mL]
1,CC(=O)c1ccc(NC(=O)C(C)NCc2ccccc2Cl)cc1 (centres undefined),38.3
2,COc1ccc2oc(=O)c(C(=O)NCCc3ccc(OC)c(OC)c3)cc2c1,< 0.8
3,C=CCNc1cc(=O)n(Cc2ccccc2)c(=O)[nH]1,29.7
4,O=C(CCNC(=O)c1ccc([N+](=O)[O-])cc1)NCc1ccco1,> 47.6
5,O=C(NCc1ccccn1)C(=O)Nc1cc2c3c(c1)CC(=O)N3CCC2,> 52.6
6,Cc1cc(CSc2nc(C)cc(=O)[nH]2)c2ncccc2c1,8.7
7,O=C(COc1ccccc1)Nc1c(Cl)ccc2nsnc12,4.7
8,CC(C)(C)NS(=O)(=O)c1ccc(NC(=O)C2CCCCC2)cc1,11.5
9,CCOC(=O)c1ccc(CN2Cc3ccccc3C2=O)cc1,> 44.3
10,CC(C)n1cnnc1SCC(=O)Nc1cccnc1Cl,> 46.8
11,Cn1c(Oc2ccc(F)cc2F)c(C=O)c2ccccc21,16.6
12,COc1ccc(S(=O)(=O)N2CCN(CC(=O)NC(Cc3ccccc3)C(C)=O)CC2)cc1 (centres undefined),> 68.9
13,CN(C)C(=O)Oc1ccc2c(c1)O/C(=C\c1cccc([N+](=O)[O-])c1)C2=O,< 0.4
14,Cc1ccnc(SC2CC(=O)N(c3ccc(C(C)C)cc3)C2=O)n1 (centres undefined),> 51.2
15,CN(C(=O)c1cccc(S(=O)(=O)NCc2ccccc2)c1)C1CCCCC1,50.7
16,CSc1ccc(C2NC(=O)c3ccccc3N2)cc1 (centres undefined),2.6
17,Cc1ccc(NC(=O)COC(=O)c2ccc3c(c2)OCO3)c(C)c1,< 0.7
18,O=C(NCc1cccc(C(F)(F)F)c1)N1CCN(C(=O)c2ccccc2)CC1,> 58.7
19,Nc1[nH]c(=O)ncc1F,> 19.4
20,COc1ccc(C)cc1NC(=O)CCCN1C(=O)CN(C)C1=O,> 47.9
21,CC(C)(Cc1ccc(O)cc1)NC(=O)c1ccccc1,36.7
22,Cc1ccc([N+](=O)[O-])c(OCc2ncc(Cl)n2C)c1,9.8
23,Cc1ccc(F)cc1NC(=O)N1CCCN(c2ccc(C(F)(F)F)cn2)CC1,6.6
24,CC1CCCN(CC(O)COc2ccc(-c3ccccc3)cc2)C1 (centres undefined),44.4

row,Compound,solubility kinetic [µg/mL]
1,COc1ccc(CNC(=O)CC2(CC(=O)O)CCCCC2)cc1,> 47.9
2,Cc1cccc2c3c([nH]c12)C(=O)CC(C)(C)S3,< 0.5
3,Cc1cccnc1NC(=S)Nc1ccc(F)cc1F,8
4,CC(=O)c1c(Cl)nc2cccc3c2c1-c1ccccc1C3=O,< 0.7
5,CCOc1ccc(OCC(=O)Nc2ccc(S(N)(=O)=O)cc2)cc1,7.1
6,O=S(=O)(c1cccs1)N1CCC(CO)(Cc2cccc(F)c2)CC1,53.8
7,Cc1cccc(Cn2c(C)nc3ccc([N+](=O)[O-])cc3c2=O)c1,3.6
8,COC(=O)Nc1nc2ccc(Sc3ccccc3)cc2[nH]1,0.9
9,CCCCOc1ccc(C2(C)NC(=O)NC2=O)cc1 (centres undefined),31.2
10,O=C(COC(=O)c1cccc(Cl)c1)NCc1ccccc1,4.6
11,O=C(NCCCCc1ccccc1)Nc1cccc(F)c1,8.2
12,Cc1cccc(NC(=O)c2cccc(C(=O)Nc3cccc(C)c3C)n2)c1C,1.1
13,O=C(c1cccs1)N1CCN(c2ncc(Br)cn2)CC1,9.5
14,CSc1ccc(CN(C)C(=O)C(c2ccccc2)c2ccccc2)cc1,7.7
15,O=C(O)c1cccc(S(=O)(=O)Nc2ccc3c(c2)CCC3)c1,> 47.6
16,COc1cccc(C(O)c2nc3ccccc3n2C(C)C)c1OC (centres undefined),> 49
17,CCOC(=O)C1=C(COC(=O)c2cccnc2SC)NC(=O)NC1C (centres undefined),> 54.8
18,Br.Cc1ccc(C2=CSC3=NCCN23)cc1,43.2
19,CC(=O)c1ccc(NC2=NCCCS2)cc1,> 35.1
20,COc1ccc(S(=O)(=O)N2CCCC2)cc1Br,33.9
21,COc1ccc(OC)c(NC(=O)c2nc(-c3ccccc3)oc2C)c1,3.1
22,COc1ccc(-c2cccc(C(=O)N3CCOCC3)c2)cc1,40
23,CCOC(=O)CNC(=S)N(Cc1ccccc1)Cc1cccs1,19.8
